Measured values from PubChem BioAssay AID2060883 (Molecular Pharmacology Branch, DTP, NCI, 2025).
One block for each compound: values may come before it.

System: 843782-103-R-J1-PDC complex spheroid viability
Assay: Anticancer human tumor 843782-103-R-J1-PDC patient-derived lung adenocarcinoma cell line growth inhibition [RAS]
Conditions: for IC50: curve of first compound; for viability, T/C: stronger effect = lower value
Method in brief: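 Agents were tested in combination matrices in half-log decrements from a top concentration at or near clinical Cmax (10 microM if undetermined). Targets were multi-cell spheroids of tumour lines plus HUVEC and MSC stromal cells.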

[1] = second compound 0.000949 µM, first compound 0.0316 µM
[2] = second compound 0.000949 µM, first compound 0.1 µM
[3] = second compound 0.000949 µM, first compound 0.316 µM
[4] = second compound 0.000949 µM, first compound 1 µM
[5] = second compound 0.000949 µM, first compound 3.16 µM
[6] = second compound 0.000949 µM, first compound 10 µM
[7] = second compound 0.003 µM, first compound 0.0316 µM
[8] = second compound 0.003 µM, first compound 0.1 µM
[9] = second compound 0.003 µM, first compound 0.316 µM
[10] = second compound 0.003 µM, first compound 1 µM
[11] = second compound 0.003 µM, first compound 3.16 µM
[12] = second compound 0.003 µM, first compound 10 µM
[13] = second compound 0.00949 µM, first compound 0.0316 µM
[14] = second compound 0.00949 µM, first compound 0.1 µM
[15] = second compound 0.00949 µM, first compound 0.316 µM
[16] = second compound 0.00949 µM, first compound 1 µM
[17] = second compound 0.00949 µM, first compound 3.16 µM
[18] = second compound 0.00949 µM, first compound 10 µM
[19] = second compound 0.03 µM, first compound 0.0316 µM
[20] = second compound 0.03 µM, first compound 0.1 µM
[21] = second compound 0.03 µM, first compound 0.316 µM
[22] = second compound 0.03 µM, first compound 1 µM
[23] = second compound 0.03 µM, first compound 3.16 µM
[24] = second compound 0.03 µM, first compound 10 µM
[25] = second compound 0.0949 µM, first compound 0.0316 µM
[26] = second compound 0.0949 µM, first compound 0.1 µM
[27] = second compound 0.0949 µM, first compound 0.316 µM
[28] = second compound 0.0949 µM, first compound 1 µM
[29] = second compound 0.0949 µM, first compound 3.16 µM
[30] = second compound 0.0949 µM, first compound 10 µM
[31] = second compound 0.3 µM, first compound 0.0316 µM
[32] = second compound 0.3 µM, first compound 0.1 µM
[33] = second compound 0.3 µM, first compound 0.316 µM
[34] = second compound 0.3 µM, first compound 1 µM
[35] = second compound 0.3 µM, first compound 3.16 µM
[36] = second compound 0.3 µM, first compound 10 µM
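Note: viability read after seven days of compound exposure.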

IC50 (second compound 0.000949 µM): 123 nM
IC50 (second compound 0.003 µM): 52.7 nM
IC50 (second compound 0.00949 µM): < 31.6 nM
IC50 (second compound 0.03 µM): < 31.6 nM
IC50 (second compound 0.0949 µM): < 31.6 nM
IC50 (second compound 0.3 µM): < 31.6 nM
Structure (SMILES): CC1(O)CCCC1n1c(=O)c(C(F)F)cc2cnc(NC3CCN(S(C)(=O)=O)CC3)nc21 (centres undefined) + CCn1c(-c2cc(N3CCN(C)CC3)cnc2C(C)OC)c2c3cc(ccc31)-c1csc(n1)CC(NC(=O)C1CC1C)C(=O)N1CCCC(N1)C(=O)OCC(C)(C)C2
viability, T/C [1]: 68.6%
viability, T/C [2]: 57%
viability, T/C [3]: 18.5%
viability, T/C [4]: 14.9%
viability, T/C [5]: 11.1%
viability, T/C [6]: 2.8%
viability, T/C [7]: 58.1%
viability, T/C [8]: 42.5%
viability, T/C [9]: 16.6%
viability, T/C [10]: 17.5%
viability, T/C [11]: 13.2%
viability, T/C [12]: 2.6%
viability, T/C [13]: 37.4%
viability, T/C [14]: 24.2%
viability, T/C [15]: 14.6%
viability, T/C [16]: 15.8%
viability, T/C [17]: 13.1%
viability, T/C [18]: 3.41%
viability, T/C [19]: 18.4%
viability, T/C [20]: 15.7%
viability, T/C [21]: 13%
viability, T/C [22]: 12.7%
viability, T/C [23]: 13.5%
viability, T/C [24]: 2.9%
viability, T/C [25]: 15.8%
viability, T/C [26]: 13.8%
viability, T/C [27]: 10.8%
viability, T/C [28]: 11.4%
viability, T/C [29]: 12%
viability, T/C [30]: 3.5%
viability, T/C [31]: 14.1%
viability, T/C [32]: 13.6%
viability, T/C [33]: 9.45%
viability, T/C [34]: 10%
viability, T/C [35]: 9.83%
viability, T/C [36]: 3.16%

IC50 (second compound 0.000949 µM): 591 nM
IC50 (second compound 0.003 µM): 406 nM
IC50 (second compound 0.00949 µM): < 31.6 nM
IC50 (second compound 0.03 µM): < 31.6 nM
IC50 (second compound 0.0949 µM): < 31.6 nM
IC50 (second compound 0.3 µM): < 31.6 nM
Structure (SMILES): CCC(CC)c1cc(NC2CCC(N)C2)n2nccc2n1 (centres undefined) + CCn1c(-c2cc(N3CCN(C)CC3)cnc2C(C)OC)c2c3cc(ccc31)-c1csc(n1)CC(NC(=O)C1CC1C)C(=O)N1CCCC(N1)C(=O)OCC(C)(C)C2
viability, T/C [1]: 75.2%
viability, T/C [2]: 76.5%
viability, T/C [3]: 72.7%
viability, T/C [4]: 30.7%
viability, T/C [5]: 0.47%
viability, T/C [6]: 0.37%
viability, T/C [7]: 53.5%
viability, T/C [8]: 53.9%
viability, T/C [9]: 58.1%
viability, T/C [10]: 31.4%
viability, T/C [11]: 0.26%
viability, T/C [12]: 0.35%
viability, T/C [13]: 30.6%
viability, T/C [14]: 34.3%
viability, T/C [15]: 36.8%
viability, T/C [16]: 17.1%
viability, T/C [17]: 0.17%
viability, T/C [18]: 0.29%
viability, T/C [19]: 21.9%
viability, T/C [20]: 19%
viability, T/C [21]: 21.2%
viability, T/C [22]: 15.5%
viability, T/C [23]: 0.09%
viability, T/C [24]: 0.27%
viability, T/C [25]: 15.7%
viability, T/C [26]: 15%
viability, T/C [27]: 16.8%
viability, T/C [28]: 14.7%
viability, T/C [29]: 0.52%
viability, T/C [30]: 0.34%
viability, T/C [31]: 15%
viability, T/C [32]: 14.2%
viability, T/C [33]: 14.8%
viability, T/C [34]: 13.4%
viability, T/C [35]: 0.25%
viability, T/C [36]: 0.53%
